A short description of this series: Blood-brain-barrier crossing, brain and plasma levels in mice. It is filed as in vivo. Conditions: intravenous. The procedure: Further evaluation may be performed on bryostatin or other PKC activating compound crossing the blood-brain-barrier (BBB) and the steady state levels of bryostatin or other PKC activating compound in the brain and plasma of mice.
In contrast, plasma concentrations of bryostatin or other PKC activating compound may be greater when the drug is administered as a single injection for three consecutive weeks. Blood plasma concentrations of bryostatin or other PKC activating compound may be less in mice receiving a 25 μg/m^2 dose as a “1 on/1 off” or a “2 on/1 off” administration. Without being bound to a specific theory, it may be hypothesized that the intermittent dosing regimen facilitates the transport of bryostatin or other PKC activating compound across the BBB.

For the compound `CCC/C=C/C=C/C(=O)O[C@H]1/C(=C/C(=O)OC)C[C@H]2C[C@H]([C@@H](C)O)OC(=O)C[C@H](O)C[C@@H]3C[C@H](OC(C)=O)C(C)(C)[C@](O)(C[C@@H]4C/C(=C/C(=O)OC)C[C@H](/C=C/C(C)(C)[C@]1(O)O2)O4)O3` [Bryostatin-1], the crossing the blood-brain-barrier entry was “crosses the BBB”.

Values taken from patent US20220184028A1, “TREATMENT OF AMYOTROPHIC LATERAL SCLEROSIS USING PKC ACTIVATORS” (Synaptogenix, Inc., priority 2020, published 2022).
